In article PMC10746543, “Design principles for cyclin K molecular glue degraders” (Nature Chemical Biology, 2023):
Values joined by “and” are separate entries in the source; they are usually repeats but may differ in a detail not shown here. Identical values can stand only once. Like-named read-outs stand apart in the source and are kept apart here.

Experiments:
[1] = tested on: HEK293T cells; experiment: Drug sensitivity assay (CellTiter-Glo viability) with or without MLN4924 pretreatment; type: cell-based, human; conditions: for EC50: Homo sapiens, HEK-293T; for Toxicity rescue: MLN4924-mediated cytotoxicity rescue, 10 µM used where n.d.
Method in brief: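 Luminescent ATP read-out (CellTiter-Glo) after 3 days of drug exposure, normalised to DMSO controls. Cells were HEK293T–Cas9, pretreated with 100 nM MLN4924 or DMSO for 2 h before drug dispensing.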

[2] = target: T1, CDK12–cyclin K and DDB1 (Homo sapiens, UniProt Q16531+Q9NYV4, K965R); experiment: TR-FRET ternary complex formation assay (compound titration); type: binding
T1 construct: His6–CDK12 (a.a. 713–1,052); full-length or beta-propeller B domain deletion (ΔBPB: a.a. 396–705 deleted) constructs of His6–DDB1ΔBPB, StrepII–Avi–DDB1, or His6–Spy–DDB1; made in house; host or cells: Trichoplusia ni High Five insect cells (baculovirus)
T1 sequence (Q9NYV4 713-1052 K965R): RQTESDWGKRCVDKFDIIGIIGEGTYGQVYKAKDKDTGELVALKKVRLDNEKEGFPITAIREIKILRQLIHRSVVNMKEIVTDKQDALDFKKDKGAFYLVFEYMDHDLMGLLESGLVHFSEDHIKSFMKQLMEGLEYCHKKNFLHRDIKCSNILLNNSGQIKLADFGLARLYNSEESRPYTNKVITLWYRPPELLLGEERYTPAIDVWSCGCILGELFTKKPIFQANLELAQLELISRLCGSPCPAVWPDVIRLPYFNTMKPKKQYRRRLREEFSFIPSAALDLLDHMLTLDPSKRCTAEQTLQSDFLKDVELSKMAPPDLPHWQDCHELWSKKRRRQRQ
T1 sequence (O75909 1-267 partner): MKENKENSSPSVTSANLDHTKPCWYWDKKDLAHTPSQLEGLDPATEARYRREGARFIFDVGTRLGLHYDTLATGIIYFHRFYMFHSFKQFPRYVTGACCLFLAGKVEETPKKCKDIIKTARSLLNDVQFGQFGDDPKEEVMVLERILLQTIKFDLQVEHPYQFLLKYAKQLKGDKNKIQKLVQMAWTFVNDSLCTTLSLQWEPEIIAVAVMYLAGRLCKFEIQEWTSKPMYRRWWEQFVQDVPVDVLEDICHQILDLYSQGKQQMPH
T1 sequence (Q16531 whole entry): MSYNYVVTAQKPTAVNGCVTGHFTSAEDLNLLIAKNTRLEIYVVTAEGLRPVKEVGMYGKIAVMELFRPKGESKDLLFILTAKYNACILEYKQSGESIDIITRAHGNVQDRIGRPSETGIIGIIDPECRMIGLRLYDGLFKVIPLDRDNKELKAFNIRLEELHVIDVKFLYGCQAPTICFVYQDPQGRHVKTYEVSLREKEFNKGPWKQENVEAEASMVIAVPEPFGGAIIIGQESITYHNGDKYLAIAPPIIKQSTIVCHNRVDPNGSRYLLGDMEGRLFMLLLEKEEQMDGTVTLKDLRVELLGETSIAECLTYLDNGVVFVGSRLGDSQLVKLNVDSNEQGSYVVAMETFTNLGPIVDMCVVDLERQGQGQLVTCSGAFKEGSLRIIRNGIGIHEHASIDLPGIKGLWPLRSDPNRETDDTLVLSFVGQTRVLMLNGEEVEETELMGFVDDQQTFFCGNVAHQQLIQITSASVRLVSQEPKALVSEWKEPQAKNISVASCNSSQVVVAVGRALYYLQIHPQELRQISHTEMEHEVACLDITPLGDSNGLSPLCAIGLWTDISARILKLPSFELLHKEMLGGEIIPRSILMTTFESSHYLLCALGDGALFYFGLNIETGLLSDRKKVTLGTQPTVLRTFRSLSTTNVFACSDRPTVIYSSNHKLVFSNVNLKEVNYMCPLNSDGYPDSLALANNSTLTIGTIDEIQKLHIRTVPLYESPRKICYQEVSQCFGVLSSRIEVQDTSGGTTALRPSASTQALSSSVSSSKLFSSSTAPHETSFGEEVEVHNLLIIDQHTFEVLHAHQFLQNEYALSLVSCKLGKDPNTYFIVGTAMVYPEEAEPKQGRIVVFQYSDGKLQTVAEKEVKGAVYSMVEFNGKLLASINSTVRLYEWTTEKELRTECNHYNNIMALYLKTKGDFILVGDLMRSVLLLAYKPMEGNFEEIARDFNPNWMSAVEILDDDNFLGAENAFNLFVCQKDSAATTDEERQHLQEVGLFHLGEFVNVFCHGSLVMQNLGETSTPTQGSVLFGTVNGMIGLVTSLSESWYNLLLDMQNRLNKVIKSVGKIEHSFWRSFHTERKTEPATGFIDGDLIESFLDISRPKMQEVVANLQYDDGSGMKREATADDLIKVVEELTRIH
Method in brief: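 TR-FRET ratio 520/490 nm; 70 μs delay before read to suppress background.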

[3] = target: T2, CDK9–cyclin T (Homo sapiens, UniProt P50750); experiment: Lanthascreen kinase binding assay, CDK9; conditions: for Lanthascreen TR-FRET signal (raw ratio), sheet CDK9: first titration set (r1), duplicates
T2 construct: purchased Thermo Fisher
T2 sequence (P50750 whole entry): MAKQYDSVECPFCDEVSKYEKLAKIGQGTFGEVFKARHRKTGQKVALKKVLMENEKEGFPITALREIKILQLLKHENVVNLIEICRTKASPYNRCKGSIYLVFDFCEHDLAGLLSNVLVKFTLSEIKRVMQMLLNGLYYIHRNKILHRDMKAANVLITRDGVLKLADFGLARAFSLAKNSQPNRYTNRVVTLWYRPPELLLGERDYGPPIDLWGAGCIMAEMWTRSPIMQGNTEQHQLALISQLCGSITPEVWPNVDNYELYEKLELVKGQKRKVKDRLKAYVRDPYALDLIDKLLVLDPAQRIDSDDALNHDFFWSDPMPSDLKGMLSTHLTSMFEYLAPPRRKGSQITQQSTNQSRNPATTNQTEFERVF
T2 sequence (O60563 whole entry partner): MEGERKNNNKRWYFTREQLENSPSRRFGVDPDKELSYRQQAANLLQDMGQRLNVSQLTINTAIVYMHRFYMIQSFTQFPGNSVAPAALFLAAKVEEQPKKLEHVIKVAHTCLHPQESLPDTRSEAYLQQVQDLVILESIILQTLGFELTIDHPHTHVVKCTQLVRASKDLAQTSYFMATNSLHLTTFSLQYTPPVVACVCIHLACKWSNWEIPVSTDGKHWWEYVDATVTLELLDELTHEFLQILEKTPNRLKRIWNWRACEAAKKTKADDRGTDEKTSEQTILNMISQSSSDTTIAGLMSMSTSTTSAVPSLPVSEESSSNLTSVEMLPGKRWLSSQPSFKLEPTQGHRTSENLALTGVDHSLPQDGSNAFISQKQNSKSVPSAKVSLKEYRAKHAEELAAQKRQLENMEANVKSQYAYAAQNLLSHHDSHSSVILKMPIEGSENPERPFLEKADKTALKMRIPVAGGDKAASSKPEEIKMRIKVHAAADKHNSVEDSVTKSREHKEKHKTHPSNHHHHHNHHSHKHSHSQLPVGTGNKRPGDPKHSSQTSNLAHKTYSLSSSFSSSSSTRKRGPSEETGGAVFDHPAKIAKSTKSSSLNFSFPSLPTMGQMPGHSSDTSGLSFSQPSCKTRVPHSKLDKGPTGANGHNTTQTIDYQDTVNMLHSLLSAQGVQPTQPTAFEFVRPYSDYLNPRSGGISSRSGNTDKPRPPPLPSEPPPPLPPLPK
Experimental: (§1) Lanthascreen experiments were performed using commercially available reagents (Thermo Fisher) and according to the manufacturer’s instructions.

[4] = target: T3, CDK2–cyclin A (Homo sapiens, UniProt P24941); experiment: Lanthascreen kinase binding assay, CDK2; conditions: for Lanthascreen signal, sheet CDK2: raw replicates, experiment r1-r11
T3 construct: purchased Thermo Fisher
Experimental: as §1

[5] = target: CDK12–cyclin K (Homo sapiens, UniProt Q9NYV4); experiment: Lanthascreen kinase binding assay, CDK12; conditions: for Lanthascreen raw signal, sheet CDK12: series r1, duplicates
Sequence of CDK12–cyclin K (Q9NYV4 713-1052): as the sequence (Q9NYV4 713-1052 K965R) above, with R253K counted along it
Sequence of CDK12–cyclin K (O75909 1-267 partner limits assumed): as the sequence (O75909 1-267 partner) above
Experimental: as §1

[6] = tested on: cyclin K–eGFP degradation reporter; experiment: Cyclin K reporter stability analysis (dual-color cyclin K–eGFP reporter); type: cell-based, human
Method in brief: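 A 5 h treatment of HEK293T–Cas9 cells expressing the degradation reporter preceded flow cytometry; eGFP over mCherry, normalized to DMSO.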

[7] = Supplementary Table 2, HEK293T viability, 72 h, compound alone, read-out: Cellular assays EC50
[8] = compound concentration 15.84 nM
[9] = compound concentration 62.6401 nM
[10] = compound concentration 79.2001 nM
[11] = compound concentration 158.4 nM
[12] = compound concentration 244.8 nM
[13] = compound concentration 309.6 nM
[14] = compound concentration 626.401 nM
[15] = compound concentration 993.601 nM
[16] = compound concentration 1252.8 nM
[17] = compound concentration 2001.6 nM
[18] = compound concentration 9936.01 nM
[19] = compound concentration 20016 nM
[20] = in vitro complex formation, 50 nM CDK12–cyclin K, 100 nM DDB1, text and figures, read-out: TR-FRET EC50
[21] = sheet MOESM7, read-out: log TR-FRET EC50 (converted)
[22] = Supplementary Table 2, read-out: Lanthascreen IC50 [nM] CDK9
[23] = Lanthascreen, average, Extended Data Fig. 8, read-out: CDK2 IC50
[24] = Supplementary Table 2, read-out: Lanthascreen IC50 [nM] CDK2
[25] = Supplementary Table 2, read-out: Lanthascreen IC50 [nM] CDK12

## COc1ccc(C)cc1N1C[C@@H](C(=O)Nc2nc3ccccc3[nH]2)CC1=O [Z11]
[1]; Supplementary Fig. 5, HEK293T, CellTiter Glo, 72h, pre-treatment with 100 nM MLN4924, read-out: Viability EC50, with MLN4924
  EC50: 1290 µM
[1]; [7]
  EC50: 1.07 µM
[1]; Supplementary Table 2
  Toxicity rescue: 838%
[2]; compound concentration 3.6 nM
  TR-FRET signal: 0.4206 and 0.3705
[2]; compound concentration 4.68 nM
  TR-FRET signal: 0.1751 and 0.204
[2]; [8]
  TR-FRET signal: 0.7002 and 0.5772
[2]; compound concentration 21.6 nM
  TR-FRET signal: 0.3896 and 0.4045
[2]; compound concentration 36 nM
  TR-FRET signal: 0.7669 and 0.7566
[2]; [9]
  TR-FRET signal: 1.529 and 1.274
[2]; [10]
  TR-FRET signal: 1.336 and 1.393
[2]; [11]
  TR-FRET signal: 1.979 and 2.065
[2]; [12]
  TR-FRET signal: 3.0134 and 2.769
[2]; [13]
  TR-FRET signal: 2.635 and 2.78
[2]; [14]
  TR-FRET signal: 3.319 and 3.352
[2]; [15]
  TR-FRET signal: 3.805 and 3.416
[2]; [16]
  TR-FRET signal: 3.754 and 3.678
[2]; [17]
  TR-FRET signal: 4.058 and 3.866
[2]; compound concentration 2448 nM
  TR-FRET signal: 3.936 and 3.906
[2]; [18]
  TR-FRET signal: 4.2719 and 4.125
[2]; [19]
  TR-FRET signal: 4.262 and 4.289
[2]; [20]
  EC50: 0.178 ± 0.014 µM
[2]; [21]
  EC50: 0.178 µM
[2]; source data sheet correlations, read-out: TR-FRET EC50
  EC50: 0.178 µM
[3]; Lanthascreen, average, Extended Data Fig. 8, read-out: CDK9 IC50
  IC50: > 10000 nM
[3]; [22]
  IC50: > 10000 nM
[3]; compound 1.02544 nM
  Lanthascreen TR-FRET signal (raw ratio), sheet CDK9: 0.0144 and 0.01353
[3]; compound 3.15521 nM
  Lanthascreen TR-FRET signal (raw ratio), sheet CDK9: 0.01322 and 0.01379
[3]; compound 9.46563 nM
  Lanthascreen TR-FRET signal (raw ratio), sheet CDK9: 0.01482 and 0.01443
[3]; compound 31.5521 nM
  Lanthascreen TR-FRET signal (raw ratio), sheet CDK9: 0.01456 and 0.01497
[3]; compound 99.3891 nM
  Lanthascreen TR-FRET signal (raw ratio), sheet CDK9: 0.0144 and 0.01356
[3]; compound 315.521 nM
  Lanthascreen TR-FRET signal (raw ratio), sheet CDK9: 0.01557 and 0.0126
[3]; compound 3155.21 nM
  Lanthascreen TR-FRET signal (raw ratio), sheet CDK9: 0.01348 and 0.01509
[3]; compound 10002 nM
  Lanthascreen TR-FRET signal (raw ratio), sheet CDK9: 0.008815 and 0.01082
[4]; Compound 1.02544 nM
  Lanthascreen signal, sheet CDK2: 0.007579 and 0.009377
[4]; Compound 3.15521 nM
  Lanthascreen signal, sheet CDK2: 0.00995 and 0.009356
[4]; Compound 9.46563 nM
  Lanthascreen signal, sheet CDK2: 0.01093 and 0.01062
[4]; Compound 31.5521 nM
  Lanthascreen signal, sheet CDK2: 0.01004 and 0.01088
[4]; Compound 99.3891 nM
  Lanthascreen signal, sheet CDK2: 0.009456 and 0.01029
[4]; Compound 315.521 nM
  Lanthascreen signal, sheet CDK2: 0.0104 and 0.01024
[4]; Compound 3155.21 nM
  Lanthascreen signal, sheet CDK2: 0.01031 and 0.01162
[4]; Compound 10002 nM
  Lanthascreen signal, sheet CDK2: 0.01102 and 0.01013
[4]; [23]
  IC50: > 10000 nM
[4]; [24]
  IC50: > 10000 nM
[5]; [25]
  IC50: 3220 nM
[5]; compound 1.02544 nM
  Lanthascreen raw signal, sheet CDK12: 0.009169 and 0.008974
[5]; compound 3.15521 nM
  Lanthascreen raw signal, sheet CDK12: 0.009884 and 0.009801
[5]; compound 9.46563 nM
  Lanthascreen raw signal, sheet CDK12: 0.008091 and 0.0101
[5]; compound 31.5521 nM
  Lanthascreen raw signal, sheet CDK12: 0.00922 and 0.009965
[5]; compound 99.3891 nM
  Lanthascreen raw signal, sheet CDK12: 0.01122 and 0.009922
[5]; compound 315.521 nM
  Lanthascreen raw signal, sheet CDK12: 0.009639 and 0.01064
[5]; compound 3155.21 nM
  Lanthascreen raw signal, sheet CDK12: 0.00898 and 0.008785
[5]; compound 10002 nM
  Lanthascreen raw signal, sheet CDK12: 0.007994 and 0.007932
[6]; source data sheet correlations, read-out: DC50
  DC50: 0.436 µM

## O=C(CCn1cnc2ccccc2c1=O)Nc1ccc(Br)cn1 [Z7]
[1]; [7]
  EC50: > 10 µM
[1]; Supplementary Table 2
  Toxicity rescue: 0%
[2]; Supplementary Table 2, read-out: TR-FRET EC50 TR-FRET
  EC50: 0.303 µM
[2]; compound concentration 0.468 nM
  TR-FRET signal: 0.3146 and 0.2937
[2]; compound concentration 2.16 nM
  TR-FRET signal: 0.327 and 0.3142
[2]; compound concentration 3.6 nM
  TR-FRET signal: 0.3516 and 0.3492
[2]; compound concentration 4.68 nM
  TR-FRET signal: 0.1778 and 0.177
[2]; compound concentration 7.92001 nM
  TR-FRET signal: 0.4103 and 0.4025
[2]; [8]
  TR-FRET signal: 0.4987 and 0.4962
[2]; compound concentration 21.6 nM
  TR-FRET signal: 0.3031 and 0.3042
[2]; compound concentration 30.96 nM
  TR-FRET signal: 0.6587 and 0.6967
[2]; compound concentration 36 nM
  TR-FRET signal: 0.5003 and 0.5187
[2]; [9]
  TR-FRET signal: 0.9444 and 1.024
[2]; [10]
  TR-FRET signal: 0.8582 and 0.8909
[2]; compound concentration 125.28 nM
  TR-FRET signal: 1.324 and 1.444
[2]; [11]
  TR-FRET signal: 1.305 and 1.368
[2]; [12]
  TR-FRET signal: 1.9166 and 1.983
[2]; [13]
  TR-FRET signal: 1.882 and 1.916
[2]; [14]
  TR-FRET signal: 2.43 and 2.4997
[2]; [15]
  TR-FRET signal: 2.9527 and 2.952
[2]; [16]
  TR-FRET signal: 2.93 and 3.011
[2]; [17]
  TR-FRET signal: 3.382 and 3.238
[2]; compound concentration 2448 nM
  TR-FRET signal: 3.265 and 3.3741
[2]; [18]
  TR-FRET signal: 3.59 and 3.595
[2]; [19]
  TR-FRET signal: 3.713 and 3.698
[2]; [20]
  EC50: 0.303 ± 0.016 µM
[2]; [21]
  EC50: 0.303 µM
[3]; [22]
  IC50: 873 nM
[3]; compound 1.02544 nM
  Lanthascreen TR-FRET signal (raw ratio), sheet CDK9: 0.01205 and 0.01344
[3]; compound 3.15521 nM
  Lanthascreen TR-FRET signal (raw ratio), sheet CDK9: 0.01275 and 0.01665
[3]; compound 9.46563 nM
  Lanthascreen TR-FRET signal (raw ratio), sheet CDK9: 0.01222 and 0.01758
[3]; compound 31.5521 nM
  Lanthascreen TR-FRET signal (raw ratio), sheet CDK9: 0.01391 and 0.02091
[3]; compound 99.3891 nM
  Lanthascreen TR-FRET signal (raw ratio), sheet CDK9: 0.01184 and 0.01953
[3]; compound 315.521 nM
  Lanthascreen TR-FRET signal (raw ratio), sheet CDK9: 0.01137 and 0.01786
[3]; compound 3155.21 nM
  Lanthascreen TR-FRET signal (raw ratio), sheet CDK9: 0.003916 and 0.005427
[3]; compound 10002 nM
  Lanthascreen TR-FRET signal (raw ratio), sheet CDK9: 0.004637 and 0.003497
[4]; Compound 1.02544 nM
  Lanthascreen signal, sheet CDK2: 0.01007 and 0.009144
[4]; Compound 3.15521 nM
  Lanthascreen signal, sheet CDK2: 0.0112 and 0.008273
[4]; Compound 9.46563 nM
  Lanthascreen signal, sheet CDK2: 0.0109 and 0.01003
[4]; Compound 31.5521 nM
  Lanthascreen signal, sheet CDK2: 0.009356 and 0.009077
[4]; Compound 99.3891 nM
  Lanthascreen signal, sheet CDK2: 0.01058 and 0.01018
[4]; Compound 315.521 nM
  Lanthascreen signal, sheet CDK2: 0.009946 and 0.008466
[4]; Compound 3155.21 nM
  Lanthascreen signal, sheet CDK2: 0.009117 and 0.008683
[4]; Compound 10002 nM
  Lanthascreen signal, sheet CDK2: 0.008076 and 0.006678
[4]; [23]
  IC50: > 10000 nM
[4]; [24]
  IC50: > 10000 nM
[5]; Lanthascreen, average, Extended Data Fig. 8, read-out: CDK12 IC50
  IC50: > 10000 nM
[5]; [25]
  IC50: > 10000 nM
[5]; compound 1.02544 nM
  Lanthascreen raw signal, sheet CDK12: 0.009993 and 0.009189
[5]; compound 3.15521 nM
  Lanthascreen raw signal, sheet CDK12: 0.007678 and 0.01017
[5]; compound 9.46563 nM
  Lanthascreen raw signal, sheet CDK12: 0.008332 and 0.008957
[5]; compound 31.5521 nM
  Lanthascreen raw signal, sheet CDK12: 0.009201 and 0.006925
[5]; compound 99.3891 nM
  Lanthascreen raw signal, sheet CDK12: 0.01004 and 0.007454
[5]; compound 315.521 nM
  Lanthascreen raw signal, sheet CDK12: 0.008681 and 0.00881
[5]; compound 3155.21 nM
  Lanthascreen raw signal, sheet CDK12: 0.008543 and 0.006433
[5]; compound 10002 nM
  Lanthascreen raw signal, sheet CDK12: 0.006174 and 0.006044
[6]; Supplementary Table 2, HEK293T cycK-eGFP reporter, 5 h, read-out: Cellular assays DC50
  DC50: > 10 µM
